For one assay, the target named is PI-3 kinase γ (Homo sapiens, UniProt P48736). The assay is described as follows: PI3Kγ inhibitory activity, PI3-kinase HTRF assay (inhibition ratio). As to conditions: 0.5 h; PI3Kγ, compound at 10 μM. The assay is classed as biochemical. The protocol:
The PI3Kγ inhibitory activity of a compound was evaluated using PI3-kinase HTRF™ assay (Millipore) according to the following procedure:
To each well of a testing plate, 5 μL of a compound solution containing 10% DMSO (200 μmol/L or 40 μmol/L as the concentration of the compound), 5 μL of a substrate solution (40 μmol/L phosphatidylinositol (4,5)-bisphosphate, 20 mmol/L MgCl2, 10 mmol/L DTT), and 5 μL of a enzyme solution (80 μg/mL PI-3 kinase γ, 10 mmol/L MgCl2, 5 mmol/L DTT) were added, and then allowed to stand for 10 minutes.
Then, 5 μL of a reaction solution (40 μmol/L ATP, 10 mmol/L MgCl2, 5 mmol/L DTT) was added thereto. After reacting for 30 minutes at room temperature, 5 μL of a solution containing EDTA and biotinylated phosphatidylinositol (3,4,5)-triphosphate were added to quench the reaction.
5 μL of a detection reagent containing a europium-labeled anti-GST antibody, the GST-tagged PH domain, and allophycocyanin-labeled streptavidin was added thereto. After 18 hours, HTRF (excitation wavelength: 330 nm, measured wavelengths: 620 nm and 665 nm) was measured.
HTRF ratio was defined as the value obtained by dividing the amount of fluorescence obtained at the measured wavelength 665 nm by the amount of fluorescence obtained at 620 nm. The HTRF ratio in the absence of a compound was defined as 100% activity and the HTRF ratio in the absence of PI-3 kinase γ was defined as 0% activity to calculate an inhibition ratio which was defined as the PI3Kγ inhibitory activity of a compound at 50 μmol/L or 10 μmol/L.
Chain of PI-3 kinase γ (P48736 whole entry): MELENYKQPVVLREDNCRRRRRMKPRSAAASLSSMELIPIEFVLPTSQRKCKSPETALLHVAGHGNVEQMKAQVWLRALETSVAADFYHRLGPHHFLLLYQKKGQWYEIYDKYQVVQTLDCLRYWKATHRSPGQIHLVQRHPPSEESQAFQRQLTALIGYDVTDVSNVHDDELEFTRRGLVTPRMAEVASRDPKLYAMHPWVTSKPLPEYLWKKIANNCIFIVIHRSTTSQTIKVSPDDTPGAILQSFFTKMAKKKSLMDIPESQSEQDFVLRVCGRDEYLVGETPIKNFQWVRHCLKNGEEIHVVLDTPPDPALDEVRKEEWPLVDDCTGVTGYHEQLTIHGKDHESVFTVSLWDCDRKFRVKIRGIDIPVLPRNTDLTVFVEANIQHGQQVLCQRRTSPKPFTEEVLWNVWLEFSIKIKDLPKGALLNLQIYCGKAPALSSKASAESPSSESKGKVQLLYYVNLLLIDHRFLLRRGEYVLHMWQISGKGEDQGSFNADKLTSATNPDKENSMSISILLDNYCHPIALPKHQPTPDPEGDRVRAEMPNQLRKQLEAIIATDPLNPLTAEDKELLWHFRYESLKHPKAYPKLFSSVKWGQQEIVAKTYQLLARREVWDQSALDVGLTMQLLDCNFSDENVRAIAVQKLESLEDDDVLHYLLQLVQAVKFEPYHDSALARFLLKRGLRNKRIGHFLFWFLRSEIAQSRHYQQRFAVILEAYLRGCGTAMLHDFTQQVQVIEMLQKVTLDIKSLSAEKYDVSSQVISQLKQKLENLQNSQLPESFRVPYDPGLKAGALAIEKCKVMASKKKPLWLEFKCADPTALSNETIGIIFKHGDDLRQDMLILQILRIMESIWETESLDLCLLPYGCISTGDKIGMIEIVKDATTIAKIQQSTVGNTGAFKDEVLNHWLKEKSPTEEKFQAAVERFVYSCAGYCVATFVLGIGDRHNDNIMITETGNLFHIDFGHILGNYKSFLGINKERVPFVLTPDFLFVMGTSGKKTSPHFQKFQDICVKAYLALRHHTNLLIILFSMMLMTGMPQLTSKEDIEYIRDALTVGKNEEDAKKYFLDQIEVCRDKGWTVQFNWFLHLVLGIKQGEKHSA
`COc1cc(N2CCc3nc(NC(=O)NCCC(=O)N4CCC[C@H]4C(=O)OC(C)(C)C)sc3C2)nc(OC)n1` [Compound I-275]: the inhibition at 10 µM is not below 95%.

In the case of `COc1cc(N2CCc3nc(NC(=O)NCC(=O)OC(C)(C)C)sc3C2)nc(OC)n1` [Compound I-252], the inhibition at 10 µM was determined as 88%.

For `COc1cc(N2CCc3nc(NC(=O)NCCC(=O)N(C)c4ccccc4)sc3C2)nc(OC)n1` [Compound I-274], the inhibition at 10 µM was not below 95%.

For the compound `COc1cc(N2CCc3nc(NC(=O)NCCCOC(C)(C)C)sc3C2)nc(OC)n1` [Compound I-288], the inhibition at 10 µM was not below 95%.

The assay is the same for the next values; noted with them: 0.5 h; PI3Kγ, compound at 50 μM.
Consider `CNC(=O)Nc1cc2n(n1)CCN2C(=O)c1nc2ccccc2s1` [Compound I-40], for which the inhibition at 50 µM was 73%.

`CNC(=O)Nc1cc2n(n1)CCN2c1cc(C#Cc2ccccc2)cc(C(=O)N2CCOCC2)c1` [Compound I-228]: the inhibition at 50 µM worked out at 85%.

In the case of `CC(=O)Nc1cc2n(n1)CCN2C(=O)OC(C)(C)C` [Compound I-130], the inhibition at 50 µM is not below 95%.

Regarding `COc1cc(N2CCc3nc(NC(=O)NCCC(=O)OC(C)(C)C)sc3C2)nc(OC)n1` [Compound I-143], the inhibition at 50 µM was not below 95%.

For the compound `CNC(=O)Nc1cc2n(n1)CCN2c1ccc(C(=O)O)cc1` [Compound I-97], the inhibition at 50 µM is not below 95%.

As for `CNC(=O)Nc1cc2n(n1)CCN2c1ccc2c(c1)CCNC2=O` [Compound I-194], the inhibition at 50 µM turned out to be 95%.

On to `CNC(=O)Nc1cc2n(n1)CCN2c1cc(C(=O)N2CCOCC2)cc(-c2cccnc2)c1` [Compound I-199], for which the inhibition at 50 µM was 89%.

With `CCOC(=O)c1sc(N2CCn3nc(NC(=O)NC)cc32)nc1C` [Compound I-196], the inhibition at 50 µM amounted to 79%.

Regarding `CNC(=O)Nc1cc2n(n1)CCN2c1cc(C(=O)N2CCOCC2)cc(C2=CCCCC2)c1` [Compound I-231], the inhibition at 50 µM was not below 95%.

Consider `CCOC(=O)CNC(=O)Nc1cc2n(n1)CCN2c1ccccc1` [Compound I-129], for which the inhibition at 50 µM is 81%.

For `CNC(=O)Nc1cc2n(n1)CCN2c1cc(Br)cc(C(N)=O)c1` [Compound I-178], the inhibition at 50 µM was not below 95%.

As to `CNC(=O)Nc1cc2n(n1)CCN2c1ccc2c(c1)C(=O)CC2` [Compound I-216], the inhibition at 50 µM is not below 95%.

As for `CC(C)(C)OC(=O)N1CCn2nc(NC(=O)NCC(=O)O)cc21` [Compound I-59], the inhibition at 50 µM turned out to be 94%.

With `CNC(=O)Nc1cc2n(n1)CCN2c1ccc(F)c(OC)c1` [Compound I-168], the inhibition at 50 µM was not below 95%.

For `CNC(=O)Nc1nc2c(s1)CN(c1cc(OC)nc(OC)n1)CC2` [Compound I-107], the inhibition at 50 µM is not below 95%.

Consider `CNC(=O)Nc1cc2n(n1)CCN2c1cc(Br)cc(C(=O)O)c1` [Compound I-149], for which the inhibition at 50 µM is not below 95%.

`CNC(=O)Nc1cc2n(n1)CCN2c1cc(Br)cc(C(=O)OC)c1` [Compound I-146]: the inhibition at 50 µM was not below 95%.

`CC(C)(C)OC(=O)CCNC(=O)Nc1cc2n(n1)CCN2c1cccc(Cl)c1` [Compound I-212]: the inhibition at 50 µM amounted to 80%.

In the case of `CNC(=O)Nc1cc2n(n1)CCN2c1cc(C(=O)N2CCOCC2)cc(C2CCCCC2)c1` [Compound I-267], the inhibition at 50 µM was not below 95%.

Consider `CNC(=O)Nc1cc2n(n1)CCN2c1cc(Nc2ccccc2)cc(C(=O)O)c1` [Compound I-166], for which the inhibition at 50 µM was not below 95%.

In the case of `CNC(=O)Nc1cc2n(n1)CCN2c1cc(C(=O)O)cc(-c2ccccc2)c1` [Compound I-163], the inhibition at 50 µM was not below 95%.

For `CNC(=O)Nc1cc2n(n1)CCN2c1cccc(Cl)c1` [Compound I-67], the inhibition at 50 µM was not below 95%.

Take `CNC(=O)Nc1nc2c(s1)CN(c1cc(Oc3ccccc3)nc(OC(C)(C)C)n1)CC2` [Compound I-150]: the inhibition at 50 µM is not below 95%.

As to `CNC(=O)Nc1cc2n(n1)CCN2c1cc(Br)cc(C(=O)N2CCOCC2)c1` [Compound I-173], the inhibition at 50 µM was not below 95%.

As for `CNC(=O)Nc1cc2n(n1)CCN2C(=O)OC(C)(C)C` [Compound I-8], the inhibition at 50 µM was not below 95%.

On to `CNC(=O)Nc1nc2c(s1)CN(c1cc(C(=O)OC)nc(Cl)n1)CC2` [Compound I-100], for which the inhibition at 50 µM was not below 95%.

`CC(=O)Nc1cc2n(C(=O)c3ccccc3)ccn2n1` [Compound I-6]: the inhibition at 50 µM stood at 90%.

The assay is the same for the next values; noted with them: 0.5 h; compound at 10 μmol/L.
For `CN1CCc2cc(N3CCn4nc(NC(=O)c5ccc(N)nc5)cc43)ccc2C1=O` [Compound I-386], the inhibition at 10 µM was not below 95%.

For `CC(C)CC(=O)Nc1ncc(C(=O)Nc2cc3n(n2)CCN3c2ccc3c(c2)CCN(C)C3=O)s1` [Compound I-533], the inhibition at 10 µM was 95%.

Take `CN1CCc2cc(N3CCn4nc(NC(=O)c5ccc6[nH]cnc6c5)cc43)ccc2C1=O` [Compound I-349]: the inhibition at 10 µM is not below 95%.

On to `CN1CCc2cc(N3CCn4nc(NC(=O)c5ccc(C(=O)O)cc5)cc43)ccc2C1=O` [Compound I-524], for which the inhibition at 10 µM is 92%.

On to `CC(C)NC(=O)c1ccccc1NC(=O)Nc1nc2c(s1)CN(C(=O)c1cccc(Cl)c1)CC2` [Compound I-511], for which the inhibition at 10 µM was 75%.

As to `CC(C)NC(=O)c1ccccc1NC(=O)Nc1nc2c(s1)CN(C(=O)c1ccccc1)CC2` [Compound I-488], the inhibition at 10 µM was found to be 88%.

With `CN1CCc2cc(N3CCn4nc(NC(=O)c5cnc(NC(=O)OC(C)(C)C)o5)cc43)ccc2C1=O` [Compound I-376], the inhibition at 10 µM is not below 95%.

Consider `CN1CCc2cc(N3CCn4nc(NC(=O)Nc5ccsc5)cc43)ccc2C1=O` [Compound I-368], for which the inhibition at 10 µM is 95%.

For `CN1CCc2cc(N3CCn4nc(NC(=O)c5csc(C(=O)O)c5)cc43)ccc2C1=O` [Compound I-418], the inhibition at 10 µM is 93%.

With `CN1CCc2cc(N3CCn4nc(NC(=O)Cc5ccc(F)cc5)cc43)ccc2C1=O` [Compound I-342], the inhibition at 10 µM was found to be 92%.

For `CC(C)NC(=O)c1cc(C(=O)Nc2cc3n(n2)CCN3c2ccc3c(c2)CCN(C)C3=O)cs1` [Compound I-419], the inhibition at 10 µM was 83%.

`CNC(=O)Nc1nc2c(s1)CN(c1cc(Cl)nc(OC)n1)CC2` [Compound I-333]: the inhibition at 10 µM was 88%.

`CC(C)NC(=O)c1ccccc1NC(=O)Nc1nc2c(s1)CN(C(=O)c1ccc(O)cc1)CC2` [Compound I-550]: the inhibition at 10 µM came out at 81%.

As for `CN1CCc2cc(N3CCn4nc(NC(=O)c5cccc(OC(C)(C)C(=O)O)c5)cc43)ccc2C1=O` [Compound I-474], the inhibition at 10 µM was not below 95%.

As for `CCCNS(=O)(=O)c1ccc(C(=O)Nc2cc3n(n2)CCN3c2ccc3c(c2)CCN(C)C3=O)cc1` [Compound I-526], the inhibition at 10 µM was found to be 90%.

As for `COCn1ccc(C(=O)Nc2cc3n(n2)CCN3c2ccc3c(c2)CCN(C)C3=O)n1` [Compound I-467], the inhibition at 10 µM is not below 95%.

Take `COc1cccc(C(=O)N2CCc3nc(NC(=O)Nc4ccccc4C(=O)NC(C)C)sc3C2)c1` [Compound I-484]: the inhibition at 10 µM is not below 95%.

On to `CC(C)CCOc1ccc(C(=O)Nc2cc3n(n2)CCN3c2ccc3c(c2)CCN(C)C3=O)cc1` [Compound I-551], for which the inhibition at 10 µM stood at 84%.

In the case of `CN1CCc2cc(N3CCn4nc(NC(=O)c5ccccc5N)cc43)ccc2C1=O` [Compound I-500], the inhibition at 10 µM worked out at 81%.

`CCOC(=O)CNC(=O)Nc1cc2n(n1)CCN2c1ccc2c(c1)CCN(C)C2=O` [Compound I-501]: the inhibition at 10 µM turned out to be 81%.

With `CNC(=O)c1ccc(C(=O)Nc2cc3n(n2)CCN3c2ccc3c(c2)CCN(C)C3=O)s1` [Compound I-406], the inhibition at 10 µM was not below 95%.

In the case of `CN1CCc2cc(N3CCn4nc(NC(=O)c5sccc5Cl)cc43)ccc2C1=O` [Compound I-445], the inhibition at 10 µM is 89%.

For `O=C(Nc1cc2n(n1)CCN2c1ccc2cnccc2c1)OCc1ccccc1` [Compound I-291], the inhibition at 10 µM is not below 95%.

For `CN1CCc2cc(N3CCn4nc(NC(=O)c5csc(C(=O)NCC(C)(C)C)c5)cc43)ccc2C1=O` [Compound I-439], the inhibition at 10 µM was not below 95%.

As to `CC(C)Oc1cccc(C(=O)Nc2cc3n(n2)CCN3c2ccc3c(c2)CCN(C)C3=O)c1` [Compound I-463], the inhibition at 10 µM was not below 95%.

`COc1cc(N2CCc3nc(NC(=O)c4ccc(C)s4)sc3C2)nc(OC)n1` [Compound I-458]: the inhibition at 10 µM turned out to be 92%.

In the case of `COc1cc(N2CCc3nc(NC(=O)Nc4ccccn4)sc3C2)nc(OC)n1` [Compound I-302], the inhibition at 10 µM amounted to 85%.

Staying with this assay, now noted: 0.5 h; compound at 50 μmol/L.
In the case of `CN1CCc2cc(N3CCn4nc(NC(=O)c5csc6ccccc56)cc43)ccc2C1=O` [Compound I-373], the inhibition at 50 µM is 82%.

Regarding `CN1CCc2cc(N3CCn4nc(NC(=O)CC5CCN(C(=O)OC(C)(C)C)C5)cc43)ccc2C1=O` (centres unmarked) [Compound I-351], the inhibition at 50 µM is not below 95%.

As for `CN1CCc2cc(N3CCn4nc(NC(=O)C5CCNC5)cc43)ccc2C1=O` (centres unmarked) [Compound I-355], the inhibition at 50 µM was determined as 92%.

With `CC(=O)Nc1cc2n(n1)CCN2c1ccc2c(c1)CCNC2` [Compound I-305], the inhibition at 50 µM turned out to be 84%.

The record behind these values is patent publication US20110230472A1, “RING-FUSED AZOLE DERIVATIVE HAVING PI3K-INHIBITING ACTIVITY” (Shionogi & Co., Ltd., priority 2008, published 2011).
